# Tested on: human Cav3.1 Cav3.2 or Cav3.3 channel
# Experiment: In vitro assay T channel (FLIPR calcium fluorescence)
# Format: cell-based
# Conditions: HEK293 cells expressing human Cav3.1, Cav3.2 or Cav3.3; 10 mM Ca2+-induced fluo-4 fluorescence; determined up to 10 μM; read-out: T channel antagonistic activity IC50
# Protocol: The T channel antagonistic activity (IC50 values) of the compounds of formula (I) is determined in accordance with the following experimental method and data are shown in Table 1.
# Human embryonic kidney (HEK293) cells expressing the human Cav3.1 Cav3.2 or Cav3.3 channel, respectively, are grown in culture medium (DMEM containing 10% heat-inactivated fetal calf serum (FCS), 100 U/ml penicillin, 100 μg/ml streptomycin and 1 mg/ml G418). The cells are seeded at 20.000 cells/well into 384-well black clear bottom sterile plates (poly-L-lysine-coated, Becton Dickinson). The seeded plates are incubated overnight at 37° C. in 5% CO2. The Ca^2+ solution is prepared as 100 mM stock solution in 100 mM tetraethylammoniumchloride (TEA-chloride), 50 mM HEPES, 2.5 mM CaCl2, 5 mM KCl, 1 mM MgCl2, adjusted to pH 7.2 with TEA-hydroxide, for use in the assay at a final concentration of 10 mM. Antagonists are prepared as 10 mM stock solutions in DMSO, then diluted in 384 w plates first in DMSO, then in 100 mM TEA-chloride, 50 mM HEPES, 2.5 mM CaCl2, 5 mM KCl, 1 mM MgCl2, adjusted to pH 7.2 with TEA-hydroxide, to obtain 9× stocks. On the day of the assay, 25 μl of staining buffer (HBSS containing 20 mM HEPES, 0.375 g/l NaHCO3 and 3 μM of the fluorescent calcium indicator fluo-4 AM (1 mM stock solution in DMSO, containing 10% pluronic) is added to each well of the seeded plate. The 384-well cell-plates are incubated for 60 min at 37° C. in 5% CO2 followed by washing with 2×50 μl per well using HBSS containing 0.1% BSA, 20 mM HEPES, 0.375 g/l NaHCO3, leaving 50 […] of this buffer for equilibration at room temperature (30-60 min). Within the Fluorescent Imaging Plate Reader (FLIPR, Molecular Devices), antagonists are added to the plate in a volume of 6.25 μl/well, incubated for 3 min, and finally 6.25 […] of Ca^2+ solution is added. Fluorescence is measured for each well at 2 second intervals for 8 minutes, and the area under the curve of each fluorescence peak is compared to the area of the fluorescence peak induced by 10 mM Ca^2+ with vehicle in place of antagonist. For each antagonist, the IC50 value (the concentration (in nM) of compound needed to inhibit 50% of the Ca^2+-induced fluorescence response) up to 10 μM is determined.
row,Structure (SMILES),IC50
1,"CC(C)C(=O)O[C@@]1(CCN(C)CCCc2nc3ccccc3[nH]2)C[C@H]2CC[C@@H]1C=C2c1cccnc1 (relative stereo) [Example 9A, rac-Isobutyric acid (1R*,2R*,4R*)-2-(2-{[3-(1H-benzoimidazol-2-yl)-propyl]-methyl-amino}-ethyl)-5-pyridin-3-yl-bicyclo[2.2.2]oct-5-en-2-yl ester]",2340 nM
2,"Cc1cccc(C)c1C1=C[C@H]2CC[C@@H]1C[C@]2(CCN(C)CCCc1nc2ccccc2[nH]1)OC(=O)C(C)C (relative stereo) [Example 3A, rac-Isobutyric acid (1R*,2R*,4R*)-2-(2-{[3-(1H-benzoimidazol-2-yl)-propyl]-methyl-amino}-ethyl)-5-(2,6-dimethyl-phenyl)-bicyclo[2.2.2]oct-5-en-2-yl ester]",4600 nM
3,"CC(C)C(=O)OC1(CCN(C)CCCc2nc3ccccc3[nH]2)CC2CCC1C=C2c1ccccc1 [Example 12A, Isobutyric acid (1R,2R,4R)-2-(2-{[3-(1H-benzoimidazol-2-yl)-propyl]-methyl-amino}-ethyl)-5-phenyl-bicyclo[2.2.2]oct-5-en-2-yl ester or isobutyric acid (1S,2S,4S)-2-(2-{[3-(1H-benzoimidazol-2-yl)-propyl]-methyl-amino}-ethyl)-5-phenyl-bicyclo[2.2.2]oct-5-en-2-yl ester]",4230 nM
4,"CC1=C(c2ccccc2)[C@H]2CC[C@@H]1C[C@@]2(O)CCN(C)CCCc1nc2ccccc2[nH]1 (relative stereo) [Example 17, rac-(1R*,2R*,4R*)-2-(2-{[3-(1H-Benzoimidazol-2-yl)-propyl]-methyl-amino}-ethyl)-5-methyl-6-phenyl-bicyclo[2.2.2]oct-5-en-2-ol]",1260 nM
5,"CN(CCc1nc2ccccc2[nH]1)CC[C@]1(O)C[C@H]2CC[C@@H]1C=C2c1ccccc1 (relative stereo) [Example 13, rac-(1R*,2R*,4R*)-2-(2-{[2-(1H-Benzoimidazol-2-yl)-ethyl]-methyl-amino}-ethyl)-5-phenyl-bicyclo[2.2.2]oct-5-en-2-ol]",2730 nM
6,"CC(C)C(=O)OC1(CCN(C)CCCc2nc3ccccc3[nH]2)CC2CCC1C=C2c1ccccc1 [Example 11A, Isobutyric acid (1R,2R,4R)-2-(2-{[3-(1H-benzoimidazol-2-yl)-propyl]-methyl-amino}-ethyl)-5-phenyl-bicyclo[2.2.2]oct-5-en-2-yl ester or isobutyric acid (1S,2S,4S)-2-(2-{[3-(1H-benzoimidazol-2-yl)-propyl]-methyl-amino}-ethyl)-5-phenyl-bicyclo[2.2.2]oct-5-en-2-yl ester]",4650 nM
7,"CN(CC[C@]1(O)C[C@H]2CC[C@@H]1C=C2c1ccccc1)Cc1nc2ccccc2[nH]1 (relative stereo) [Example 14, rac-(1R*,2R*,4R*)-2-{2-[(1H-Benzoimidazol-2-ylmethyl)-methyl-amino]-ethyl}-5-phenyl-bicyclo[2.2.2]oct-5-en-2-ol]",8950 nM
8,"CC(C)C(=O)O[C@@]1(CCN(C)CCc2nc3ccccc3[nH]2)C[C@H]2CC[C@@H]1C=C2c1ccccc1 (relative stereo) [Example 13A, rac-Isobutyric acid (1R*,2R*,4R*)-2-(2-{[2-(1H-benzoimidazol-2-yl)-ethyl]-methyl-amino}-ethyl)-5-phenyl-bicyclo[2.2.2]oct-5-en-2-yl ester]",4340 nM
9,"Cc1ccccc1C1=C[C@H]2CC[C@@H]1C[C@@]2(O)CCN(C)CCCc1nc2ccccc2[nH]1 (relative stereo) [Example 4, rac-(1R*,2R*,4R*)-2-(2-{[3-(1H-Benzoimidazol-2-yl)-propyl]-methyl-amino}-ethyl)-5-(2-methyl-phenyl)-bicyclo[2.2.2]oct-5-en-2-ol]",3610 nM

# Other lines, results leading:
row,IC50,Structure (SMILES)
1,1700 nM,"CC(C)C(=O)O[C@@]1(CCN(C)CCCNC(=O)C(C)(C)C)C[C@H]2CC[C@@H]1C=C2c1ccccc1 (relative stereo) [Example 45A, rac-Isobutyric acid (1R*,2R*,4R*)-2-(2-{[3-(2,2-dimethyl-propionylamino)-propyl]-methyl-amino}-ethyl)-5-phenyl-bicyclo[2.2.2]oct-5-en-2-yl ester]"
2,1780 nM,"COc1ccc(C)c2nc(CCCN(C)CC[C@]3(O)C[C@H]4CC[C@@H]3C=C4c3ccccc3)[nH]c12 (relative stereo) [Example 30, rac-(1R*,2R*,4R*)-2-(2-{[3-(7-Methoxy-4-methyl-1H-benzoimidazol-2-yl)-propyl]-methyl-amino}-ethyl)-5-phenyl-bicyclo[2.2.2]oct-5-en-2-ol]"
3,2530 nM,"COc1cc2nc(CCCN(C)CC[C@]3(O)C[C@H]4CC[C@@H]3C=C4c3ccccc3)[nH]c2cc1OC (relative stereo) [Example 28, rac-(1R*,2R*,4R*)-2-(2-{[3-(5,6-Dimethoxy-1H-benzoimidazol-2-yl)-propyl]-methyl-amino}-ethyl)-5-phenyl-bicyclo[2.2.2]oct-5-en-2-ol]"
4,2580 nM,"CCOc1cccc2nc(CCCN(C)CC[C@]3(O)C[C@H]4CC[C@@H]3C=C4c3ccccc3)[nH]c12 (relative stereo) [Example 31, rac-(1R*,2R*,4R*)-2-(2-{[3-(7-Ethoxy-1H-benzoimidazol-2-yl)-propyl]-methyl-amino}-ethyl)-5-phenyl-bicyclo[2.2.2]oct-5-en-2-ol]"
5,> 10000 nM,"Cc1cc2cc(CCCN(C)CC[C@]3(O)C[C@H]4CC[C@@H]3C=C4c3ccccc3)cnc2o1 (relative stereo) [Example 42, rac-(1R*,2R*,4R*)-2-(2-{Methyl-[3-(2-methyl-furo[2,3-b]pyridin-5-yl)-propyl]-amino}-ethyl)-5-phenyl-bicyclo[2.2.2]oct-5-en-2-ol]"
6,688 nM,"COCC(C)(COC)C(=O)N(C)CCCN(C)CC[C@]1(OC(=O)C(C)C)C[C@H]2CC[C@@H]1C(c1ccccc1)=C2C (relative stereo) [Example 53A, rac-Isobutyric acid (1R*,2R*,4R*)-2-[2-({3-[(3-methoxy-2-methoxymethyl-2-methyl-propionyl)-methyl-amino]-propyl}-methyl-amino)-ethyl]-5-methyl-6-phenyl-bicyclo[2.2.2]oct-5-en-2-yl ester]"
7,9470 nM,"CC(C)C(=O)O[C@@]1(CCN(C)CCCc2nc3ccccc3[nH]2)C[C@H]2CC[C@@H]1C[C@@]21OCc2ccccc21 (relative stereo) [Example 79A, rac-Isobutyric acid (1R*,2R*,4R*,5R*)-5-(2-{[3-(1H-benzoimidazol-2-yl)-propyl]-methyl-amino}-ethyl)-3′H-spiro(bicyclo[2.2.2]octane-2,1′-isobenzofuran)-5-yl ester]"
8,2450 nM,"COc1cccc2[nH]c(CCCN(C)CC[C@]3(OC(=O)CC(F)(F)F)C[C@H]4CCC[C@@H]3C=C4c3ccccc3)nc12 (relative stereo) [Example 36B, rac-3,3,3-Trifluoro-propionic acid (1R*,5R*,6R*)-6-(2-{[3-(4-methoxy-1H-benzoimidazol-2-yl)-propyl]-methyl-amino}-ethyl)-8-phenyl-bicyclo[3.2.2]non-8-en-6-yl ester]"
9,4180 nM,"CC(C)C(=O)O[C@@]1(CCN(C)CCCc2nc3ccccc3[nH]2)C[C@H]2CC[C@@H]1C[C@]21OCc2ccccc21 (relative stereo) [Example 80A, rac-Isobutyric acid (1R*,2S*,4R*,5R*)-5-(2-{[3-(1H-benzoimidazol-2-yl)-propyl]-methyl-amino}-ethyl)-3′H-spiro(bicyclo[2.2.2]octane-2,1′-isobenzofuran)-5-yl ester]"

# Reference: patent US8202885B2, “Bridged six-membered ring compounds” (Actelion Pharmaceuticals Ltd., priority 2007, dated 2012)
